The text below walks through data of the CATMoS acute toxicity set (Mansouri et al. 2021).

A short description of the data set: GHS categories as the set defines them, by LD50: 1 up to 5, 2 up to 50, 3 up to 300, 4 up to 2000, 5 above 2000 mg/kg. Particulars: rat; in vivo; po.

The compound `CCCc1c(Cc2ccc(-c3ccccc3-c3nn[nH]n3)cc2)c(N2CCCCC2)nc2ncnn12` showed a GHS category of 4.

`O=C(Cc1cccs1)N[C@@H]1C(=O)N2C(C(=O)O)=C(CO)CS[C@H]12` showed a GHS category of 5.

As to `O=S(=O)(O)CCN1CCN(CCO)CC1`, the GHS category stood at 5.

Regarding `N[C@@H](CC(=O)N1CCn2c(nnc2C(F)(F)F)C1)Cc1cc(F)c(F)cc1F`, the GHS category came to 5.

The compound `CC[C@@]12C=C(C(=O)OC3OC(=O)c4ccccc43)n3c4c(c5ccccc53)CCN(CCC1)[C@H]42` (stereo partly specified) had a GHS category of 5.

On to `CN1OCC(=Cc2cc(C(C)(C)C)c(O)c(C(C)(C)C)c2)C1=O`, for which the GHS category is on record as 4.

For the compound `COc1ccc2c(c1)CCN(c1ccccc1)C2c1ccccc1Cl` (stereo unspecified), the GHS category was found to be 4.

The compound `CCCCCCCCC(C)C=O` (stereo unspecified) had a GHS category of 5.

`CNC(=O)Oc1cccc2c1OC(C)(C(C)(C)C)O2` (stereo unspecified) came in with a GHS category of 4.

Compound `COc1cc2c(cc1OC)C(c1cccc(Cl)c1)=NN=C(C)C2` returned a GHS category of 5.

In turn, `CCCCCCCCCCCCCCCC(=O)OC[C@@H](O)[C@H]1OC[C@H](O)[C@H]1O` gave a GHS category of 5.

As for `O=C(O)CCC(=O)OC1N=C(c2ccccc2)c2cc(Cl)ccc2NC1=O` (stereo unspecified), the GHS category is 5.

For the compound `COC(=O)c1ccc(C(=O)OC)c(N)c1`, the GHS category came to 5.

The compound `CCc1oc2ccccc2c1C(=O)c1ccc(O)cc1` yielded a GHS category of 5.

For the compound `O=C(O)c1ccccc1C(=O)O`, the GHS category came to 5.

`CCCCCC(=O)OC1(C(C)=O)CCC2C3CCC4=CC(=O)CCC4C3CCC21C` (stereo unspecified) returned a GHS category of 5.

In turn, `CC(C)Br` returned a GHS category of 5.

For the compound `COc1ccc(C2NC(=O)CCS2)cc1OC` (stereo unspecified), the GHS category is reported as 5.

For the compound `CCCCCC1Nc2cc(C(F)(F)F)c(S(N)(=O)=O)cc2S(=O)(=O)N1` (stereo unspecified), the GHS category is on record as 5.

With `CCOC(=O)c1nn(-c2ccc(OC)cc2)c2c1CCN(c1ccc([N+](=O)[O-])cc1)C2=O`, the GHS category turned out to be 5.

`CC(C)CC1(C)OCC(CO)O1` (stereo unspecified) came in with a GHS category of 5.

As to `NC(=O)c1ccc(NC(=O)c2ccc([N+](=O)[O-])cc2)cc1`, the GHS category was determined as 5.

Compound `CCCCN(c1nc(NCCCN(CCN(CCCNc2nc(N(CCCC)C3CC(C)(C)N(C)C(C)(C)C3)nc(N(CCCC)C3CC(C)(C)N(C)C(C)(C)C3)n2)c2nc(N(CCCC)C3CC(C)(C)N(C)C(C)(C)C3)nc(N(CCCC)C3CC(C)(C)N(C)C(C)(C)C3)n2)c2nc(N(CCCC)C3CC(C)(C)N(C)C(C)(C)C3)nc(N(CCCC)C3CC(C)(C)N(C)C(C)(C)C3)n2)nc(N(CCCC)C2CC(C)(C)N(C)C(C)(C)C2)n1)C1CC(C)(C)N(C)C(C)(C)C1` registered a GHS category of 5.

In the case of `Cc1cc(C)c(O)c(-c2cc(C)cc(C)c2O)c1`, the GHS category is on record as 5.

In turn, `O=C(O)c1cc(Nc2ccccc2)c(C(=O)O)cc1Nc1ccccc1` had a GHS category of 5.

`CCCCCCOc1ccc(-c2nc(-c3ccccc3)nc(-c3ccccc3)n2)c(O)c1` had a GHS category of 5.

Compound `CCC1(C2=CCCCCC2)C(=O)NC(=O)NC1=O` gave a GHS category of 5.

`CCOC(=O)C(=O)Nc1cc(OC)ncn1` displayed a GHS category of 4.

Take `CCCCCCCCCCCCCCCNCCCCCCCCCCCCCCC`: the GHS category amounted to 5.

Compound `CCOC(=O)Oc1c(OC)cc(C(=O)O[C@@H]2C[C@@H]3CN4CCc5c([nH]c6cc(OC)ccc56)[C@H]4C[C@@H]3[C@H](C(=O)OC)[C@H]2OC)cc1OC` registered a GHS category of 5.

Regarding `C=C(C)C(=O)OCC(CC)CCCC` (stereo unspecified), the GHS category is 5.

With `O=C(Nc1ccc2[nH]c(=O)[nH]c2c1)c1cc2ccccc2c(N=Nc2cc(Cl)ccc2Cl)c1O`, the GHS category is listed as 5.

Regarding `Cc1cccc2ncc(C(=O)Nc3ccc(Cl)cc3)c(=O)n12`, the GHS category is recorded as 3.

`C[Si]1(C)O[Si](C)(C)O[Si](C)(C)O[Si](C)(C)O[Si](C)(C)O[Si](C)(C)O1`: the GHS category is recorded as 5.

Consider `CC(=O)Nc1ccc(C(C[N+](=O)[O-])Sc2ccc(C)cc2)cc1` (stereo unspecified), for which the GHS category is reported as 5.

With `CCCCCCOCC(OC)OC`, the GHS category was 5.

Take `COc1cc(-c2cc(OC)cc(C(C)(C)C)c2O)c(O)c(C(C)(C)C)c1`: the GHS category came out at 5.

The compound `Nc1c(Oc2ccccc2)cc(O)c2c1C(=O)c1ccccc1C2=O` displayed a GHS category of 5.

With `CC(C)CC(C)c1ccccc1N` (stereo unspecified), the GHS category is 5.

`CN(C)C(=O)OC1N=C(c2ccccc2)c2cc(Cl)ccc2N(C)C1=O` (stereo unspecified) showed a GHS category of 5.

`COc1ccc(COC(=O)Cc2ccccc2)cc1` had a GHS category of 5.

Compound `CCCC1(C)COC(Cn2cncn2)(c2cc3ccccc3o2)OC1` (stereo unspecified) registered a GHS category of 4.

In the case of `CCC(C#N)(CCN(CC=C(C)C)CC=C(C)C)c1cccc2ccccc12` (stereo unspecified), the GHS category is given as 4.

Take `O=CCCc1ccccc1`: the GHS category amounted to 5.

Turning to `CCN(CC)CCN(CCN(CC)CC)n1cc(-c2ccc(Cl)cc2)c2cc(C)ccc21`, the GHS category was 4.

`Cc1c(C)c2c(c(C)c1OC(=O)C(C)(C)Oc1ccc(Cl)cc1)CC[C@@](C)(CCC[C@H](C)CCC[C@H](C)CCCC(C)C)O2` had a GHS category of 5.

`CCCCC1=NC2(CCCC2)C(=O)N1Cc1ccc(-c2ccccc2C#N)cc1` gave a GHS category of 5.

For the compound `CC1=CC(=NNc2ccc(N)cc2)C=C(C)C1=O`, the GHS category is given as 5.

As for `CSC(=O)c1c(C(F)F)nc(C(F)(F)F)c(C(=O)SC)c1CC(C)C`, the GHS category was found to be 5.

`CCCCCCCCCCCCCCCCCCCCCC(=O)Nc1ccn([C@@H]2O[C@H](CO)[C@@H](O)[C@@H]2O)c(=O)n1` returned a GHS category of 4.

`CCOc1cc(NCCCN(C)C)c(=O)n(-c2ccccc2)n1` showed a GHS category of 5.

`O=C1c2ccccc2C(=O)c2c(Nc3ccccc3)ccc(O)c21` yielded a GHS category of 5.

Regarding `CC(=O)n1c(=O)oc2ccc(Cl)cc21`, the GHS category is 5.

Consider `OCC1C(CO)C2(Cl)C(Cl)=C(Cl)C1(Cl)C2(Cl)Cl` (stereo unspecified), for which the GHS category came out at 5.

Turning to `O=C1NC(=O)c2cccc3cccc1c23`, the GHS category was determined as 5.

As to `CCCCOc1ccc(-c2ccc(C#N)cc2)cc1`, the GHS category was 5.

Take `O=C(CCl)OC(=O)CCl`: the GHS category worked out at 3.

The compound `CCCC(=O)OC[C@@H](OC(=O)CCC)[C@@H](OC(=O)CCC)[C@H](Cn1c2nc(=O)[nH]c(=O)c-2nc2cc(C)c(C)cc21)OC(=O)CCC` returned a GHS category of 5.

The compound `CC(=O)Nc1c(I)c(NC(C)=O)c(I)c(C(=O)O)c1I` had a GHS category of 5.

Compound `O=C(c1ccc(Cl)cc1)c1ccc2[nH]c(=O)oc2c1` registered a GHS category of 5.

The compound `CC(C)CCC[C@@H](C)[C@H]1CC[C@H]2[C@@H]3CC[C@H]4C[C@H](O)CC[C@]4(C)[C@H]3CC[C@]12C` returned a GHS category of 4.

The compound `CNC(=O)Oc1cccc2c1OC1(CCCCC1)O2` returned a GHS category of 3.

The compound `CCCCCCCC/C=C\CCCCCCCC(=O)N(CCCC)CCCC` gave a GHS category of 5.

`CCCCCCCCCC(=O)OCC(CC)(COC(=O)CCCCCCC)COC(=O)CCCCCCC` had a GHS category of 5.

`OC(c1ccccc1)c1cccnc1Cl` (stereo unspecified) came in with a GHS category of 5.

Regarding `CC(C)CCOCCc1ccccc1`, the GHS category was found to be 5.

Compound `CNC(=O)/C(=N/OC)c1ccccc1COc1cc(C)ccc1C` gave a GHS category of 5.

The compound `CCCCCC(=O)OC` yielded a GHS category of 5.

In turn, `Fc1ccccc1C1c2cc3c(cc2CCN1c1ccccc1)OCO3` (stereo unspecified) showed a GHS category of 4.

For `COc1cc2nc(N3CCN(C(=O)CC(C)O)CC3)nc(N)c2cc1OC` (stereo unspecified), the GHS category was found to be 5.

`FC(F)(F)c1cccc(C2=CCN(CCc3ccc4ccccc4c3)CC2)c1` returned a GHS category of 4.

Regarding `CCC(=O)O[C@]1(C(=O)CCl)[C@@H](C)C[C@H]2[C@@H]3CCC4=CC(=O)C=C[C@]4(C)[C@@]3(F)[C@@H](O)C[C@@]21C`, the GHS category is recorded as 5.

Consider `CCCC(=NOCC(C)Oc1ccc(Cl)cc1)C1=C(O)CC(C2CCCSC2)CC1=O` (stereo unspecified), for which the GHS category came out at 5.

`CC1=C(C/C=C(\C)CCC[C@H](C)CCC[C@H](C)CCCC(C)C)C(=O)c2ccccc2C1=O`: the GHS category is listed as 5.

`CNC(=O)Oc1cc(C)c(S(C)(=O)=O)c(C)c1` registered a GHS category of 4.

In turn, `CC12C=CC(=O)C=C1CCC1C2CCC2(C)C(O)CCC12` (stereo unspecified) returned a GHS category of 5.

Compound `O=C(Nc1ccc(Cc2ccc(NC(=O)NC3CCCCC3)cc2)cc1)NC1CCCCC1` had a GHS category of 5.

In the case of `O=C1CCc2c(cccc2OCCCN2CCC(Cc3ccccc3)CC2)N1`, the GHS category worked out at 4.

The compound `CC(=O)OCCOC(C)C` returned a GHS category of 4.

Take `CCCCCOC=O`: the GHS category amounted to 5.

Compound `CCCCCC(=O)OCCCC` gave a GHS category of 5.

Turning to `CC(C)(C)OOC(C)(C)C`, the GHS category was 5.

The compound `OC1CCC(CN2CCC(=C3c4ccc(F)cc4Sc4ccc(C(F)(F)F)cc43)CC2)CC1` (stereo unspecified) returned a GHS category of 3.

`CN(CCNCc1cc(C(C)(C)C)cc(Br)c1O)CCNC(=O)c1nc(Cl)c(N)nc1N`: the GHS category is on record as 4.

In the case of `CCCCCCCCCCCCCc1cccc(O)c1C(=O)O`, the GHS category was 4.

`CC(=O)OCC(=O)[C@@]1(OC(C)=O)[C@@H](C)C[C@H]2[C@@H]3C[C@H](F)C4=CC(=O)C=C[C@]4(C)[C@@]3(F)[C@@H](O)C[C@@]21C`: the GHS category was found to be 5.

For `COc1cc(O)c2c(=O)oc(CO)cc2c1`, the GHS category came out at 4.

For the compound `CCCOC(=O)C(C(=O)OCCC)=C1SC2C(S1)N(C)CCN2C` (stereo unspecified), the GHS category stood at 4.

Turning to `CC(C)C[C@H](NC(=O)[C@@H](Cc1ccc2ccccc2c1)NC(=O)[C@H](Cc1ccc(O)cc1)NC(=O)[C@H](CO)NC(=O)[C@H](Cc1c[nH]c2ccccc12)NC(=O)[C@H](Cc1cnc[nH]1)NC(=O)[C@@H]1CCC(=O)N1)C(=O)N[C@@H](CCCN=C(N)N)C(=O)N1CCC[C@H]1C(=O)NCC(N)=O`, the GHS category amounted to 3.

Consider `CC(=O)OC1CCC2(C)C(CCC3(C)C2C(=O)C=C2C4CC(C)(C(=O)O)CCC4(C)CCC23C)C1(C)C` (stereo unspecified), for which the GHS category was determined as 5.

`NC[C@@H]1CC[C@@H](N)[C@@H](O[C@H]2[C@H](O)[C@@H](O[C@H]3O[C@H](CO)[C@@H](O)[C@H](N)[C@H]3O)[C@H](N)C[C@@H]2N)O1` came in with a GHS category of 5.
